The text below walks through data of patent US12264145B2, “Crystal form F of trelagliptin and preparation method thereof” (GUANGDONG UNIVERSITY OF TECHNOLOGY, priority 2023, dated 2025).

Converted amounts (≈) assume the structure as drawn.

Type in all cases: physicochemical
A short description of series [1]: Moisture absorption. The settings on record: 80% RH, 25° C., 24 h. The procedure:
The dried novel crystal form F of trelagliptin prepared in this example was spread in a weighing bottle, then placed in a constant-temperature and constant-humidity incubator with a humidity of 80% RH and a temperature of 25° C. for 24 h, and then weighed.

Series [2] is described as follows: Strong light irradiation stability test (XRPD). The following applies: illuminance 4500 lx±500 lx for 10 d, XRPD on day 5 and day 10. Here is the method: (§1) According to the Guidelines for Stability Tests of Active Pharmaceutical Ingredients (APIs) and Formulations, the stability of the novel crystal form F of trelagliptin was tested.
Strong light irradiation test: The novel crystal form F of trelagliptin was spread in a petri dish and then placed in a strong light irradiation test chamber with illuminance of 4500 lx±500 lx for 10 d, where on day 5 and day 10, a sample was taken and subjected to XRPD analysis to determine whether the crystal form was stable.

Series [3] can be described thus: High-humidity stability test (XRPD). The settings on record: relative humidities of 90% and 75% at 25° C. for 10 d, XRPD on day 5 and day 10. The procedure:
as §1
High-humidity test: The novel crystal form F of trelagliptin was spread in petri dishes, and then the petri dishes were placed in constant-temperature and constant-humidity incubators respectively with relative humidities of 90% and 75% at 25° C. for 10 d, where on day 5 and day 10, a sample was taken and subjected to XRPD analysis to determine whether the crystal form was stable.

The nature of series [4]: Equilibrium solubility of trelagliptin crystal forms in different dissolution media (UV-vis at 279 nm). The settings on record: for Solubility / solubility at 24 h: 24 h; for solubility at 24 h: 37 °C, thermodynamic from solid.
Series [5] is described as follows: High-temperature stability test (XRPD). The following applies: 60° C. for 10 d, XRPD on day 5 and day 10. Here is the method:
as §1
High-temperature test: The novel crystal form F of trelagliptin was spread in a petri dish and then placed in a drying oven at 60° C. for 10 d, where on day 5 and day 10, a sample was taken and subjected to XRPD analysis to determine whether the crystal form was stable.

As a reminder, the Solubility is the dissolved amount per volume that the medium holds. A low value points to little dissolved substance. As a reminder, the solubility is the dissolved amount per volume that the medium holds. Low readings indicate a poorly soluble substance, high ones a readily soluble substance. As to `Cn1c(=O)cc(N2CCC[C@@H](N)C2)n(Cc2cc(F)ccc2C#N)c1=O` [Crystal form F, trelagliptin], the “Weight gain (moisture absorption)” value in series [1] is reported as “less than 0.4%”. In addition, the “Stability of the crystal form” value in series [2], in series [3] and in series [5] was “no impact on the stability” throughout. Also, the Solubility in series [4] (buffer solution pH = 1.2, 37° C.) stood at 73.61 mg/mL (≈ 206 mM); in series [4] (buffer solution pH = 7.4, 37° C.), 30.54 mg/mL (≈ 85.5 mM); in series [4] (sodium phosphate buffer solution pH = 6.8, 37° C.) it was 32.78 mg/mL (≈ 91.7 mM). In series [4] (deionized water, water), this compound gave a solubility at 24 h of 8.51 mg/mL (≈ 23.8 mM). Besides, the “Solubilities compared with the original crystal form I” value in series [4] (deionized water, pH 6.8, pH 7.4 and pH 1.2 buffer solutions) is “significantly-higher solubilities”.
In turn, `Cn1c(=O)cc(N2CCC[C@@H](N)C2)n(Cc2cc(F)ccc2C#N)c1=O` [Crystal form I, trelagliptin] gave a solubility at 24 h in series [4] (buffer solution, pH 1.2, simulated gastric fluid, buffer solution pH = 1.2, 37° C.) of 42.7 mg/mL (≈ 119 mM).
